According to paper PMC9331716, “Nucleoside Transport and Nucleobase Uptake Null Mutants in Leishmania mexicana for the Routine Expression and Characterization of Purine and Pyrimidine Transporters” (International Journal of Molecular Sciences, 2022):
Several values for one entry are separate records, joined by “and”; a condition that tells them apart may be missing. Equal values may be shown once.

Legend:
L. mexicana cas9 cells [1] = experiment: Radiolabel transport assay in cas9 cells; type: cell-based, Leishmania mexicana; conditions: for rate of uptake: cas9 cells
Procedure: (§1) Transport assays were performed exactly as described previously. Briefly, 10^7 cells in 100 μL of assay buffer (AB) were mixed with an equal volume of radiolabel at 2× concentration for a preset time. The incubation was terminated by the addition of 700 μL of “Stop solution”, being ice-cold 1 mM solution of unlabelled permeant, followed by immediate centrifugation through an oil layer in a microfuge at 13,000 rpm. This causes the cell pellet to reside under the oil layer and isolated from residual radiolabel in the assay buffer. The tubes were flash-frozen in liquid nitrogen and the bottom tip, containing the cell pellet, cut off and collected in a scintillation tube. Cells were solubilized by gentle shaking after addition of a 2% SDS solution, before the addition of scintillation fluid (Scintilogic U, Lablogic, Sheffield, UK); the tubes were left to stand in the dark overnight before counting in a 300SL Hidex Scintillation Counter (Lablogic). Linear and nonlinear regression analyses were carried out using GraphPad Prism versions 8.0 and higher. […] However, all parameters, including Km, Vmax, Ki, given are the average of at least three separate, independent determinations; errors given are standard errors, unless otherwise specified.

L. mexicana NT1-KO cells = experiment: Radiolabel transport assay in NT1-KO cells; type: cell-based, Leishmania mexicana
Procedure: as §1

[2] = test system: L. mexicana SUPKO (ΔNT1.1/1.2/2) cells; experiment: Radiolabel transport assay in SUPKO cells; type: cell-based, Leishmania mexicana; conditions: for rate of uptake: SUPKO cells
Procedure: as §1

[3] = test system: L. mexicana NT3-KO promastigotes; experiment: Radiolabel transport assay in NT3-KO cells; type: cell-based, Leishmania mexicana
Procedure: as §1

LmexNT1.1 = experiment: Transport assay, LmexNT1.1 expressed in SUPKO; type: cell-based, Leishmania mexicana; conditions: SUPKO expressing LmexNT1.1, 50 nM radiolabel
Procedure: as §1

LmexNT1.2 = experiment: Transport assay, LmexNT1.2 expressed in SUPKO; type: cell-based, Leishmania mexicana; conditions: SUPKO expressing LmexNT1.2, 50 nM radiolabel
Procedure: as §1

TvagENT3 [4] = biological target: T1, TvagENT3 (Trichomonas vaginalis, UniProt A2E5Q3); experiment: cell-based
T1 sequence (A2E5Q3 entry or part of it): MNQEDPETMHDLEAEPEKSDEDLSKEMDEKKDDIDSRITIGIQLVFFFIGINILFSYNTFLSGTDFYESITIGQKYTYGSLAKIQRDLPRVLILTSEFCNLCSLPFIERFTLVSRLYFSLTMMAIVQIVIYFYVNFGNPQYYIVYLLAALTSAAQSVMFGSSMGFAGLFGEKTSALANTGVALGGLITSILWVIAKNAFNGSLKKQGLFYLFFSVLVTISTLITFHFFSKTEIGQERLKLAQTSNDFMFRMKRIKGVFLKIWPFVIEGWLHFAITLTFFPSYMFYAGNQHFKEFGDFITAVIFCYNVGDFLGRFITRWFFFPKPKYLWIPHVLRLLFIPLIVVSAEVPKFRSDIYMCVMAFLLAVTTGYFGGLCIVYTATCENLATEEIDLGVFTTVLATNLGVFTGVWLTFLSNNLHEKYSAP
Procedure: as §1

TcrNB2 [5] = biological target: T2, TcrNB2 (Trypanosoma cruzi, UniProt Q4DHG0); experiment: Transport assay, TcrNB2 expressed in LmexNT3-KO; type: cell-based; conditions: 1 mM inhibitor, TcrNB2 in NT3-KO; read-out: inhibition of adenine uptake
T2 sequence (Q4DHG0 1-440): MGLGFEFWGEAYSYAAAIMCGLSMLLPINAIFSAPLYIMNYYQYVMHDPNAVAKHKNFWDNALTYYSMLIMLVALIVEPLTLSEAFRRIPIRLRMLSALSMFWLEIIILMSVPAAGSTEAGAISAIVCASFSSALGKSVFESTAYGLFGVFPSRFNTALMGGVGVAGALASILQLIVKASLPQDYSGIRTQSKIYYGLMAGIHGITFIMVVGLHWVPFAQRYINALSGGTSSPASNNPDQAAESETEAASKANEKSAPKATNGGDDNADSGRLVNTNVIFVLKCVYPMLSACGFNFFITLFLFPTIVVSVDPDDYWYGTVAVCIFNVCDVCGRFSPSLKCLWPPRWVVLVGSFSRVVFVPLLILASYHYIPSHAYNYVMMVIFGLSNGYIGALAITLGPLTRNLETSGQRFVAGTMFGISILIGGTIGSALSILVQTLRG
Procedure: as §1

TcrNB2 [6] = biological target: T2, TcrNB2; experiment: Transport assay, TcrNB2 expressed in NT1-KO; type: cell-based; conditions: 50 nM [^3H]-adenosine, 100 nM [^3H]-hypoxanthine, 100 nM [^3H]-uracil; data not shown
Procedure: as §1

TvagENT3 [7] = biological target: T1, TvagENT3; conditions: TvagENT3 expressed in T. brucei; cited from earlier work
Lmex5FURes cells = experiment: Radiolabel transport assay in Lmex5FURes cells; type: cell-based, Leishmania mexicana
Procedure: as §1

[8] = biological target: Aspergillus nidulans uracil transporter FurD (Aspergillus nidulans, UniProt A6N844); experiment: Transport assay, FurD expressed in Lmex5FURes; type: cell-based
Procedure: as §1

FurD = biological target: FurD; parameters: method as in PMID 17520477; conditions: FurD in A. nidulans, cited from earlier work
[9] = test system: L. mexicana cas9 promastigotes; experiment: Resazurin (Alamar blue) drug sensitivity assay, cas9 control line; type: cell-based; conditions: Leishmania mexicana, n = 3
Procedure: (§2) The assay is based on the reduction of the dye resazurin (Alamar blue) by live but not dead cells and was performed with various strains of Leishmania mexicana promastigotes, exactly as described. Briefly, doubling dilutions starting at 100 µM were set up over 2 rows of a 96-well plate and 2 × 10^5 cells were added to each well, followed by incubation at 25 °C. After 72 h, 20 µL of 125 µg/mL resazurin solution was added and the plates incubated for a further 24 h. Fluorescence was determined in a FLUOstar OPTIMA plate reader (BMG Labtech, Ortenberg, Germany), reading the fluorescence intensity in arbitrary units (A.U.) at 544 nm wavelength for excitation and 620 nm wavelength for emission. The EC50 values and fluorescence data were determined and plotted to a sigmoid curve with variable slope, using the GraphPad Prism 8 software package. All EC50 values were determined on at least three independent occasions and are presented as average ± SEM.

[10] = test system: L. mexicana NT2-KO promastigotes; experiment: Resazurin (Alamar blue) drug sensitivity assay, NT2-KO line; type: cell-based; conditions: Leishmania mexicana, NT2-KO strain, n = 3
Procedure: as §2

L. mexicana cas9 cells [11] = experiment: Growth curve of cas9 cells with selection agents; type: cell-based, Leishmania mexicana; conditions: 5 μM tubercidin, 5 μg/mL blasticidin, 20 µg/mL puromycin, 1 µM formycin B
Procedure: The growth rates of the L. mexicana promastigotes were determined in the standard HOMEM medium supplemented with 10% FBS, in 12-well plates, in triplicate. After every 24 h, cells were counted in a sample of the culture, using either a Neubauer hemocytometer chamber (Hawksley, Birmingham, UK) or by a coulter particle counter and size analyzer (Beckman, Brea, CA, USA) to count the cells in triplicate. An average of the triplicate readings was taken and plotted using GraphPad Prism 8 software to obtain the growth curves.

L. major U1 transporter = biological target: L. major U1 transporter; parameters: method as in PMID 15796010; conditions: unit printed only with the uridine value; cited from earlier work
[12] = substrate: O=c1cc[nH]c(=O)[nH]1; experiment: Transport assay, FurD expressed in Lmex5FURes; type: cell-based, Aspergillus nidulans; conditions: other: FurD in Lmex5FURes, 100 nM [^3H]-uracil over 10 s
Procedure: as §1

[13] = 50 nM radiolabel, listed as [^3H]-adenosine

For `Nc1ncnc2c1ncn2[C@@H]1O[C@H](CO)[C@@H](O)[C@H]1O` [adenosine], the “inhibition of [^3H]-thymidine uptake” value (L. mexicana cas9 cells [1]; 0.1 µM [^3H]-thymidine, adenosine concentration and cell line not explicitly printed) was “fully inhibited”, the rate of uptake (L. mexicana cas9 cells [1]; [13]) was 0.082 ± 0.004 pmol(10^7 cells)^−1s^−1 and 0.081 ± 0.006 pmol(10^7 cells)^−1s^−1 and the rate of uptake (L. mexicana cas9 cells [1]; 100 nM radiolabel, listed as [^3H]-adenosine) was 0.082 ± 0.004 pmol(10^7 cells)^−1s^−1 and 0.086 ± 0.009 pmol(10^7 cells)^−1s^−1. The “rate of uptake lower in NT1-KO than in cas9” value (L. mexicana NT1-KO cells; 50 nM radiolabel) was 99.4%, the rate of uptake (L. mexicana NT1-KO cells; NT1-KO cells, 50 nM radiolabel) was 0.00048 ± 0.00007 pmol(10^7 cells)^−1s^−1 and the “uptake reduced in SUPKO compared to cas9” value ([2]; 50 nM radiolabel) was 99%. The rate of uptake ([2]; 50 nM radiolabel) was 0.00063 pmol(10^7 cells)^−1s^−1, the rate of uptake [2, 13] was 0.0006 ± 0.00007 pmol(10^7 cells)^−1s^−1 and the rate of uptake ([2]; 100 nM radiolabel) was 0.00046 ± 0.00002 pmol(10^7 cells)^−1s^−1. The rate of uptake ([3]; NT3-KO cells, 100 nM radiolabel) was 0.55 ± 0.05 pmol(10^7 cells)^−1s^−1, the “upregulation of uptake rate in NT3-KO relative to cas9” value ([3]; adenosine and inosine at 100 nM, separate experiments listed singly, listed as [^3H]-adenosine) was 4.0 fold and 6.4 fold and the rate of uptake (LmexNT1.1) was 0.27 ± 0.006 pmol(10^7 cells)^−1s^−1. For the same molecule, the rate of uptake (LmexNT1.2) was 0.36 ± 0.03 pmol(10^7 cells)^−1s^−1, the “uptake lower in SUPKO than in SUPKO expressing TvagENT3” value (TvagENT3 [4]; 50 nM radiolabel) was 94.6% and the rate of uptake (TvagENT3 [4]; SUPKO expressing TvagENT3, 50 nM radiolabel) was 0.0080 ± 0.0004 pmol(10^7 cells)^−1s^−1. The inhibition at 1000 µM (TcrNB2 [5]) was 15.5 ± 11.7%, the “effect of TcrNB2 expression on uptake in NT1-KO cells” value (TcrNB2 [6]) was “did not increase” and the Ki (TvagENT3 [7]) was 870 ± 150 nM.

In the case of `O=c1[nH]cc(F)c(=O)[nH]1` [5FU, 5-fluorouracil], the “uptake in Lmex5FURes control” value (Lmex5FURes cells; 100 nM [^3H]-5FU, p = 0.27) is given as “not significantly different from zero”, the Ki ([8]; FurD in Lmex5FURes, inhibition of [^3H]-uracil uptake) is given as 700 ± 250 nM and the Ki (FurD; unit printed only with the uracil Km) is given as 460 nM.

For `O=c1[nH]cnc2c([C@@H]3O[C@H](CO)[C@@H](O)[C@H]3O)n[nH]c12` [formycin B], the EC50 [9] was 18 ± 2 nM, the EC50 [10] was 63500 ± 1900 nM and the “sensitivity of cas9 cells in growth curve” value (L. mexicana cas9 cells [11]) was “confirmed”.

In the case of `O=c1cc[nH]c(=O)[nH]1` [uracil], the rate of uptake (L. mexicana cas9 cells [1]; 100 nM radiolabel) is reported as 0.00031 ± 0.00002 pmol(10^7 cells)^−1s^−1, the “uptake in NT1-KO compared with cas9” value (L. mexicana NT1-KO cells; 100 nM [^3H]-uracil) is reported as “identical” and the “uptake in SUPKO compared with cas9” value ([2]; 100 nM [^3H]-uracil, n = 3, p = 0.81) is reported as “identical”. For the same molecule, the rate of uptake ([2]; 100 nM radiolabel) was 0.00032 ± 0.00003 pmol(10^7 cells)^−1s^−1, the rate of uptake (Lmex5FURes cells; Lmex5FURes cells, 100 nM radiolabel) was 0.00057 ± 0.0001 pmol(10^7 cells)^−1s^−1 and the rate of uptake ([8]; Lmex5FURes expressing FurD clone 2, 100 nM radiolabel) was 0.29 ± 0.02 pmol(10^7 cells)^−1s^−1. For the same molecule, the “effect of TcrNB2 expression on uptake in NT1-KO cells” value (TcrNB2 [6]) was “did not increase”, the Ki (L. major U1 transporter) was 320 ± 70 nM and the Km (FurD) was 0.45 µM.

B1: Aspergillus nidulans uracil transporter FurD (Aspergillus nidulans) (protein)
chain: MRFGRFHLRVEQSRSAFASGNARWTNLDLDPVPRAGRVWGPLSFISYWISDAFNAATWQFASSIIAVGLSWRESLGIVALSFFIISFVIAANGAVGSIYHIPFPVIARASWGFWGSYIAIISRVILAIFWFAIQNVNGANAVKAMISAIWPSFLSMKNTIPQDQGIETNTMIAYMIFWIVQMPFLCIHPNKVRWLFATKSVLVPAAWIAILIWAFVAEGKGALFEQRATVSGSQYSWVWLASMTSVLGNYATLSVNQSDFSRYSRVSAKWQLLYIPLLPVIFTFISFIGIAASSAGWTRYNTPSIPWDPIELISHWDSRAARFFGAFSFALASLGVNISANSISAANDLMALFPTYVDLRRGQIICGVISWALVPWKILESASNFLNFMSAYAIFLGPIAAIMLWDFWLIKNRKYDTVALYQPDTPIYRFNAWLVNWRAVVAFLVGVIPSLPGLSNSVNSRIQVGVGIHPYQFGWLLGFVGTSLVYIALSYGFPVREALIERAVLSDEVYEGREVEGEGVEEGREELGESKREGVGKEKGFAVY
With B1 the Km [12] was 0.89 ± 0.20 µM.
